Assay results: PubChem BioAssay (NCI)
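How tested: cells in 96-well plates exposed to compound for 48 hours at five concentrations. Abbreviation: GI50, concentration required for 50% inhibition of growth. TGI: total growth inhibition.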

Assays:
Test in all cases: NCI anticancer screen, dose series, 48 h
786-0 renal = system: 786-0 renal
A498 renal = system: A498 renal
A549 NSCLC = system: A549 NSCLC
ACHN renal = system: ACHN renal
BT-549 breast = system: BT-549 breast
CAKI-1 renal = system: CAKI-1 renal
CCRF-CEM leukemia = system: CCRF-CEM leukemia
COLO 205 colon = system: COLO 205 colon
DU-145 prostate = system: DU-145 prostate
EKVX NSCLC = system: EKVX NSCLC
HCC-2998 colon = system: HCC-2998 colon
HCT-116 colon = system: HCT-116 colon
HCT-15 colon = system: HCT-15 colon
HL-60(TB) leukemia = system: HL-60(TB) leukemia
HOP-62 NSCLC = system: HOP-62 NSCLC
HOP-92 NSCLC = system: HOP-92 NSCLC
HS 578T breast = system: HS 578T breast
HT29 colon = system: HT29 colon
IGROV1 ovarian = system: IGROV1 ovarian
K-562 leukemia = system: K-562 leukemia
KM12 colon = system: KM12 colon
LOX IMVI melanoma = system: LOX IMVI melanoma
M14 melanoma = system: M14 melanoma
MALME-3M melanoma = system: MALME-3M melanoma
MCF7 breast = system: MCF7 breast
MDA-MB-231 breast = system: MDA-MB-231 breast
MDA-MB-435 = system: MDA-MB-435
MOLT-4 leukemia = system: MOLT-4 leukemia
NCI-H226 lung = system: NCI-H226 lung
NCI-H23 lung = system: NCI-H23 lung
NCI-H460 lung = system: NCI-H460 lung
NCI-H522 lung = system: NCI-H522 lung
NCI/ADR-RES ovarian = system: NCI/ADR-RES ovarian
OVCAR-3 ovarian = system: OVCAR-3 ovarian
OVCAR-4 ovarian = system: OVCAR-4 ovarian
OVCAR-5 ovarian = system: OVCAR-5 ovarian
OVCAR-8 ovarian = system: OVCAR-8 ovarian
PC-3 prostate = system: PC-3 prostate
RPMI-8226 leukemia = system: RPMI-8226 leukemia
RXF 393 renal = system: RXF 393 renal
SF-268 CNS = system: SF-268 CNS
SF-295 CNS = system: SF-295 CNS
SF-539 CNS = system: SF-539 CNS
SK-MEL-2 melanoma = system: SK-MEL-2 melanoma
SK-MEL-28 melanoma = system: SK-MEL-28 melanoma
SK-MEL-5 melanoma = system: SK-MEL-5 melanoma
SK-OV-3 ovarian = system: SK-OV-3 ovarian
SN12C renal = system: SN12C renal
SNB-19 CNS = system: SNB-19 CNS
SNB-75 CNS = system: SNB-75 CNS
SR leukemia = system: SR leukemia
SW-620 colon = system: SW-620 colon
T-47D breast = system: T-47D breast
TK-10 renal = system: TK-10 renal
U251 CNS = system: U251 CNS
UACC-257 melanoma = system: UACC-257 melanoma
UACC-62 melanoma = system: UACC-62 melanoma
UO-31 renal = system: UO-31 renal

NC(=O)/C(=C/n1cnc(-c2cc(C(F)(F)F)cc(C(F)(F)F)c2)n1)c1cncnc1
GI50 (786-0 renal): 0.412 µM | TGI (786-0 renal): 11.4 µM | GI50 (A498 renal): 0.0848 µM | TGI (A498 renal): 1.26 µM | GI50 (A549 NSCLC): 0.552 µM | TGI (A549 NSCLC): > 47.1 µM | GI50 (ACHN renal): 0.386 µM | TGI (ACHN renal): 11.4 µM | GI50 (BT-549 breast): 0.12 µM | TGI (BT-549 breast): 2.98 µM | GI50 (CAKI-1 renal): 0.275 µM | TGI (CAKI-1 renal): 14.1 µM | GI50 (CCRF-CEM leukemia): 0.231 µM | TGI (CCRF-CEM leukemia): 14.4 µM | GI50 (COLO 205 colon): 0.124 µM | TGI (COLO 205 colon): 11.5 µM | GI50 (DU-145 prostate): 0.625 µM | TGI (DU-145 prostate): 12.2 µM | GI50 (EKVX NSCLC): 0.566 µM | TGI (EKVX NSCLC): 20.8 µM | GI50 (HCC-2998 colon): 0.74 µM | TGI (HCC-2998 colon): 5.34 µM | GI50 (HCT-116 colon): 0.162 µM | TGI (HCT-116 colon): 4.95 µM | GI50 (HCT-15 colon): 0.286 µM | TGI (HCT-15 colon): 6.93 µM | GI50 (HL-60(TB) leukemia): 0.0562 µM | TGI (HL-60(TB) leukemia): 2.96 µM | GI50 (HOP-62 NSCLC): 1.06 µM | TGI (HOP-62 NSCLC): 17.2 µM | GI50 (HOP-92 NSCLC): 0.159 µM | TGI (HOP-92 NSCLC): 8.23 µM | GI50 (HS 578T breast): 0.793 µM | TGI (HS 578T breast): 13.5 µM | GI50 (HT29 colon): 0.422 µM | TGI (HT29 colon): 16.3 µM | GI50 (IGROV1 ovarian): 0.696 µM | TGI (IGROV1 ovarian): 14.7 µM | GI50 (K-562 leukemia): 0.144 µM | TGI (K-562 leukemia): 38.7 µM | GI50 (KM12 colon): 1.19 µM | TGI (KM12 colon): 13.4 µM | GI50 (LOX IMVI melanoma): 0.303 µM | TGI (LOX IMVI melanoma): 4.36 µM | GI50 (M14 melanoma): 0.715 µM | TGI (M14 melanoma): 7.86 µM | GI50 (MALME-3M melanoma): 0.256 µM | TGI (MALME-3M melanoma): 9.03 µM | GI50 (MCF7 breast): 0.112 µM | TGI (MCF7 breast): 11.2 µM | GI50 (MDA-MB-231 breast): 0.186 µM | TGI (MDA-MB-231 breast): 16.9 µM | GI50 (MDA-MB-435): 0.237 µM | TGI (MDA-MB-435): 3.89 µM | GI50 (MOLT-4 leukemia): 0.0884 µM | TGI (MOLT-4 leukemia): 6.32 µM | GI50 (NCI-H226 lung): 0.286 µM | TGI (NCI-H226 lung): 7.73 µM | GI50 (NCI-H23 lung): 0.307 µM | TGI (NCI-H23 lung): 9.18 µM | GI50 (NCI-H460 lung): 0.187 µM | TGI (NCI-H460 lung): 5.61 µM | GI50 (NCI-H522 lung): 0.331 µM | TGI (NCI-H522 lung): 4.33 µM | GI50 (NCI/ADR-RES ovarian): 0.517 µM | TGI (NCI/ADR-RES ovarian): 23.9 µM | GI50 (OVCAR-3 ovarian): 0.154 µM | TGI (OVCAR-3 ovarian): 3.32 µM | GI50 (OVCAR-4 ovarian): 0.0833 µM | TGI (OVCAR-4 ovarian): 16.1 µM | GI50 (OVCAR-5 ovarian): 0.447 µM | TGI (OVCAR-5 ovarian): 16.2 µM | GI50 (OVCAR-8 ovarian): 0.329 µM | TGI (OVCAR-8 ovarian): 18.2 µM | GI50 (PC-3 prostate): 0.185 µM | TGI (PC-3 prostate): 14.8 µM | GI50 (RPMI-8226 leukemia): 0.102 µM | TGI (RPMI-8226 leukemia): 9.53 µM | GI50 (RXF 393 renal): 0.0706 µM | TGI (RXF 393 renal): 0.573 µM | GI50 (SF-268 CNS): 0.516 µM | TGI (SF-268 CNS): 11.9 µM | GI50 (SF-295 CNS): 0.667 µM | TGI (SF-295 CNS): 17.1 µM | GI50 (SF-539 CNS): 0.0806 µM | TGI (SF-539 CNS): 1.45 µM | GI50 (SK-MEL-2 melanoma): 0.353 µM | TGI (SK-MEL-2 melanoma): 5.75 µM | GI50 (SK-MEL-28 melanoma): 0.503 µM | TGI (SK-MEL-28 melanoma): 11.7 µM | GI50 (SK-MEL-5 melanoma): 1.13 µM | TGI (SK-MEL-5 melanoma): 10.2 µM | GI50 (SK-OV-3 ovarian): 1.57 µM | TGI (SK-OV-3 ovarian): 43.1 µM | GI50 (SN12C renal): 0.814 µM | TGI (SN12C renal): 12.7 µM | GI50 (SNB-19 CNS): 0.654 µM | TGI (SNB-19 CNS): 15 µM | GI50 (SNB-75 CNS): 0.454 µM | TGI (SNB-75 CNS): 5.48 µM | GI50 (SR leukemia): 0.0563 µM | TGI (SR leukemia): > 34.4 µM | GI50 (SW-620 colon): 0.175 µM | TGI (SW-620 colon): 7.03 µM | GI50 (T-47D breast): 0.116 µM | TGI (T-47D breast): 11.8 µM | GI50 (TK-10 renal): 0.986 µM | TGI (TK-10 renal): 13.5 µM | GI50 (U251 CNS): 0.301 µM | TGI (U251 CNS): 12.3 µM | GI50 (UACC-257 melanoma): 0.86 µM | TGI (UACC-257 melanoma): 8.99 µM | GI50 (UACC-62 melanoma): 0.63 µM | TGI (UACC-62 melanoma): 5.37 µM | GI50 (UO-31 renal): 0.426 µM | TGI (UO-31 renal): 12.8 µM
